Here are results for 2 molecules from US6489514B1, “(-)-Secoisolariciresinol as an antioxidant obtained from a new natural source namely stereospermum personatum” (Council of Scientific and Industrial Research, priority 2001, dated 2002).

Test [1] can be described thus: In vitro free radical scavenging antioxidant potency (DPPH). The settings on record: 500 μM DPPH in ethanol, tris-HCl buffer pH 7.4, 45 minutes in dark, absorbency at 517 nm, triplicate. In kind it is biochemical. On the procedure:
Antioxidant activity of the compounds was tested for its capacity/potency to scavenge most widely used free radical, 1,1-diphenyl-2-picryl hyrazyl radical (DPPH). […] 200 μl of test compounds were reconstituted to 1 ml in tris-HCl buffer (pH 7.4). […] After incubation for 45 minutes in dark, the absorbency at 517 nm was recorder. Percent radical scavenging activity was calculated accordingly. All the readings were taken in triplicate.

For test [2] the following is noted: Japanese Pat. No. JP0131J17; cited from earlier work.
The conditions of test [3]: Japanese Pat No. JP02,101,011; cited from earlier work.
Another test has as its target T1, SHBG (Homo sapiens, UniProt P04278).
T1 sequence (P04278 30-402): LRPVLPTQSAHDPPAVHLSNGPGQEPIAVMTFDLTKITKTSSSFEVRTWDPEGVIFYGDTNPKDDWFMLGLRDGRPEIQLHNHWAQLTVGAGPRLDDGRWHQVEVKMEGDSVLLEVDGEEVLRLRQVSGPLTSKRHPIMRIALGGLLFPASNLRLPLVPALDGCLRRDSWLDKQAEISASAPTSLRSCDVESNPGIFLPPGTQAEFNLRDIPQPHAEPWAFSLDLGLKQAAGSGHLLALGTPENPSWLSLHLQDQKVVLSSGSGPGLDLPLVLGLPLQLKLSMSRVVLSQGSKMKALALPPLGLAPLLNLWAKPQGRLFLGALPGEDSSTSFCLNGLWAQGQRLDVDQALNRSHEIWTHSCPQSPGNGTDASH
The settings on record: Z. Naturforsch, C. Biosc. 997,52,834-843; cited from earlier work.

Regarding `COc1cc(CC(CO)C(CO)Cc2ccc(O)c(OC)c2)ccc1O` (single isomer, unassigned; (-)) [(−)-Secoisolariciresinol, 2,3Bis-[4-hydroxy-3-(methoxyphenyl)methyl]-1,4-butanediol], the “50% Radical scavenging concentration” value in test [1] was 13.72 µg/mL. Further, the “Activity: antitumor” value in test [2] is 1. Antitumor agent. Besides, the “Activity: cardiotonic” value in test [3] is on record as 2. Cardiotonic. At SHBG, the “Activity: binding to SHBG” value was 3. Binding to SHBG.

Consider `Cc1c(C)c2c(c(C)c1O)CCC(C)(CCCC(C)CCCC(C)CCCC(C)C)O2` (stereo not drawn) [DL α- Tocopherol, reference compound], for which the “50% Radical scavenging concentration” value in test [1] is 47.80 µg/mL.
